{
  "source": "patent US20260294770A1",
  "about": "“FORMULATIONS OF NARINGENIN” (DEBUT BIOTECHNOLOGY, INC., priority 2023, published 2026)",
  "key": {"superoxide dismutase": {"system": "superoxide dismutase", "settings": "consumed orally; cited from earlier work"}, "TNFα": {"system": "TNFα", "assay": "TNFα concentration in stimulated (stressed) normal human epidermal keratinocytes (ELISA)", "type": "cell-based", "settings": "for TNFα concentration: LPS + Poly:IC stressed NHEK, stimulated control 202.6", "source_text": "(§1) Normal Human Epidermal Keratinocytes (NHEK) were stressed with a cocktail of lipopolysaccharide (LPS) and Polyinosinic-polycytidylic acid sodium salt (Poly:IC), external aggressors capable of inducing an inflammatory response. Stressed cells were subsequently treated with test articles and reduction in inflammatory markers was measuring by ELISA. Tables 19 and 20, provided below, discloses data for TNFα and IL-6 concentrations, respectively, in stressed normal human epidermal keratinocytes."}, "NR4A2": {"system": "NR4A2", "assay": "Downregulation of gene expression and/or activity, 1% naringenin: NR4A2", "source_text": "(§2) In certain embodiments, administration of a composition comprising naringenin leads to up-regulation of LCE5A, KRT77, ALOXE3, KRT1, HPGD, MUCL1, CASP14, WFDC12, KRT10, DNASE1L2, IL37, SERPINB12, HAL, UPK1A, CALML5, LCE2B, and/or MIR205. In certain embodiments, administration of a composition comprising naringenin leads to down-regulation of CCL11, CSF2, IL23A, IL11, BMP6, IL13RA2, C2CD4A, NR4A2, C2CD4B, FGF2, FARP4, GDF15, THBS1, HSPA1A, PTGS2, and/or DKK1. Tables 10 and 11 provide data for upregulation and downregulation respectively of certain genes after administration of compositions comprising 1% naringenin.\n(§3) Nuclear receptor subfamily 4 group A member 2 (NR4A2) plays a role in the inflammatory response. In certain embodiments, downregulation of NR4A2 results in reduction in inflammation. In certain embodiments, the administration of composition comprising naringenin results in at least about 5 to about 15-fold downregulation of expression and/or activity of NR4A2. In certain embodiments, the administration of composition comprising naringenin results in at least about ten (10) fold downregulation of expression and/or activity of NR4A2."}, "FGF2": {"system": "FGF2", "assay": "Downregulation of gene expression and/or activity, 1% naringenin: FGF2", "settings": "negative = downregulation", "source_text": "as §2"}, "C2CD4A": {"system": "C2CD4A", "assay": "Downregulation of gene expression and/or activity, 1% naringenin: C2CD4A", "settings": "negative = downregulation", "source_text": "as §2"}, "psoriasis models": {"system": "psoriasis models", "settings": "cited from earlier work"}, "KRT1": {"system": "KRT1", "assay": "Upregulation of gene expression and/or activity, 1% naringenin: KRT1", "source_text": "as §2\nKeratin 1 (KRT1) plays a role in maintaining the skin strength and resiliency. Keratin 1 is produced in keratinocytes in the outer layer of the skin (the epidermis), including the skin on the palms of the hands and soles of the feet. The keratin 1 protein partners with another keratin protein, either keratin 9 or keratin 10, to form molecules called keratin intermediate filaments. These filaments assemble into strong networks that provide strength and resiliency to the skin and protect it from being damaged by friction and other everyday physical stresses. In certain embodiments, the administration of composition comprising naringenin results in upregulation of KRT1, which has a role in enhancing the strength and resiliency of the skin. […]"}, "C2CD4B": {"system": "C2CD4B", "assay": "Downregulation of gene expression and/or activity, 1% naringenin: C2CD4B", "source_text": "as §2\nas §3, with “C2 calcium dependent domain containing 4B (C2CD4B)” for “Nuclear receptor subfamily 4 group A member 2 (NR4A2)”, “C2CD4B” for “NR4A2”, “C2CD4B.” for “NR4A2.”"}, "IL-6": {"system": "IL-6", "assay": "IL-6 concentration in stimulated (stressed) normal human epidermal keratinocytes (ELISA)", "type": "cell-based", "settings": "for IL-6 concentration: LPS + Poly:IC stressed NHEK, stimulated control 1124.6", "source_text": "as §1"}, "CALML5": {"system": "CALML5", "assay": "Upregulation of gene expression and/or activity, 1% naringenin: CALML5", "source_text": "as §2\nCalmodulin like 5 (CALML5) plays a role in cell growth. The enzyme encoded by CALML5 is a novel calcium binding protein expressed in the epidermis and related to the calmodulin family of calcium binding proteins. It plays a key role in cell growth and proliferation, including playing a key role in terminal differentiation of keratinocytes. In certain embodiments, administration of compositions comprising naringenin leads to upregulation of CALML5, which leads to increase cell proliferation, including the cells in the skin and the underlying tissues. […] In certain embodiments, the administration of composition comprising naringenin results in at least about 2 to about 10-fold upregulation of expression and/or activity of CALML5. […]"}, "[1]": {"assay": "DPPH antioxidant activity assay (organic medium)", "type": "biochemical", "settings": "for % Radical Inhibition: organic medium", "source_text": "The 2,2-diphenyl-1-picrylhydrazyl (DPPH) antioxidant assay is designed to evaluate the antioxidant activity of compositions comprising naringenin in an organic medium.\n2,2-diphenyl-1-picrylhydrazyl (DPPH) is a stable free radical used to evaluate free radical scavenging capacity of a material. In the presence of an antioxidant DPPH is reduced, resulting in the formation of a colorless solution. Reduction of absorbance at 517 nm is standardized to solvent control as an indication of DPPH scavenging."}},
  "data": [
    {"compound": "O=C1C[C@@H](c2ccc(O)cc2)Oc2cc(O)cc(O)c21", "note": "[naringenin, (2S)-5,7-Dihydroxy-2-(4-hydroxyphenyl)-2,3-dihydro-4H-1-benzopyran-4-one]", "values": [
      {"measurement": "Superoxide dismutase", "setting": "superoxide dismutase", "value": "increase"},
      {"measurement": "TNFα concentration", "setting": "TNFα; 0.0001% naringenin, p-value 6.99E−07", "value": 94.3, "unit": "pg/mL"},
      {"measurement": "TNFα concentration", "setting": "TNFα; 0.0045% naringenin, p-value 0.002047", "value": 43.8, "unit": "pg/mL"},
      {"measurement": "TNFα concentration", "setting": "TNFα; 0.007% naringenin, p-value 0.002961", "value": 70.3, "unit": "pg/mL"},
      {"measurement": "TNFα concentration", "setting": "TNFα; 0.01% naringenin, p-value 0.004838", "value": 104.2, "unit": "pg/mL"},
      {"measurement": "inhibition at 0.0001 %", "setting": "TNFα; Homo sapiens, NHEK, 0.0001% naringenin, vs stimulated control, p-value 6.99E−07, read-out: TNFα % Reduction vs Treated", "value": 53.4, "unit": "%"},
      {"measurement": "inhibition at 0.0045 %", "setting": "TNFα; Homo sapiens, NHEK, 0.0045% naringenin, vs stimulated control, p-value 0.002047, read-out: TNFα % Reduction vs Treated", "value": 78.4, "unit": "%"},
      {"measurement": "inhibition at 0.007 %", "setting": "TNFα; Homo sapiens, NHEK, 0.007% naringenin, vs stimulated control, p-value 0.002961, read-out: TNFα % Reduction vs Treated", "value": 65.3, "unit": "%"},
      {"measurement": "inhibition at 0.01 %", "setting": "TNFα; Homo sapiens, NHEK, 0.01% naringenin, vs stimulated control, p-value 0.004838, read-out: TNFα % Reduction vs Treated", "value": 48.6, "unit": "%"},
      {"measurement": "Reduction of TNFα (in words)", "setting": "TNFα; stressed keratinocytes", "value": "to non-stressed levels"},
      {"measurement": "fold downregulation in expression and/or activity of NR4A2", "setting": "NR4A2", "value": "~9", "unit": "fold"},
      {"measurement": "Fold-increase (downregulation table) NR4A2", "setting": "NR4A2; negative = downregulation", "value": "−9", "unit": "fold"},
      {"measurement": "Fold-increase (downregulation table) FGF2", "setting": "FGF2", "value": "−7", "unit": "fold"},
      {"measurement": "Fold-increase (downregulation table) C2CD4A", "setting": "C2CD4A", "value": "−10", "unit": "fold"},
      {"measurement": "Skin barrier restoration", "setting": "psoriasis models", "value": "restoration of skin barrier"},
      {"measurement": "Fold-increase in expression and/or activity of KRT1", "setting": "KRT1", "value": "~7", "unit": "fold"},
      {"measurement": "fold downregulation in expression and/or activity of C2CD4B", "setting": "C2CD4B", "value": "~8", "unit": "fold"},
      {"measurement": "Fold-increase (downregulation table) C2CD4B", "setting": "C2CD4B; negative = downregulation", "value": "−8", "unit": "fold"},
      {"measurement": "IL-6 concentration", "setting": "IL-6; 0.0001% naringenin, p-value 0.0001", "value": 395.8, "unit": "pg/mL"},
      {"measurement": "IL-6 concentration", "setting": "IL-6; 0.0045% naringenin, p-value 0.0029", "value": 42.0, "unit": "pg/mL"},
      {"measurement": "IL-6 concentration", "setting": "IL-6; 0.007% naringenin, p-value 0.0030", "value": 50.0, "unit": "pg/mL"},
      {"measurement": "IL-6 concentration", "setting": "IL-6; 0.01% naringenin, p-value 0.0035", "value": 76.6, "unit": "pg/mL"},
      {"measurement": "inhibition at 0.0001 %", "setting": "IL-6; Homo sapiens, NHEK, 0.0001% naringenin, vs stimulated control, p-value 0.0001, read-out: IL-6 % Reduction vs Treated", "value": 64.8, "unit": "%"},
      {"measurement": "inhibition at 0.0045 %", "setting": "IL-6; Homo sapiens, NHEK, 0.0045% naringenin, vs stimulated control, p-value 0.0029, read-out: IL-6 % Reduction vs Treated", "value": 96.3, "unit": "%"},
      {"measurement": "inhibition at 0.007 %", "setting": "IL-6; Homo sapiens, NHEK, 0.007% naringenin, vs stimulated control, p-value 0.0030, read-out: IL-6 % Reduction vs Treated", "value": 95.6, "unit": "%"},
      {"measurement": "inhibition at 0.01 %", "setting": "IL-6; Homo sapiens, NHEK, 0.01% naringenin, vs stimulated control, p-value 0.0035, read-out: IL-6 % Reduction vs Treated", "value": 93.2, "unit": "%"},
      {"measurement": "Reduction of IL-6 (in words)", "setting": "IL-6; stressed keratinocytes", "value": "to non-stressed levels"},
      {"measurement": "Fold-increase in expression and/or activity of CALML5", "setting": "CALML5", "value": "~7", "unit": "fold"},
      {"measurement": "% Radical Inhibition", "setting": "[1]; 0.50 % w/w naringenin", "value": 18.82, "unit": "%"},
      {"measurement": "% Radical Inhibition", "setting": "[1]; 1.00 % w/w naringenin", "value": 28.44, "unit": "%"},
      {"measurement": "% Radical Inhibition", "setting": "[1]; 2.00 % w/w naringenin", "value": 46.82, "unit": "%"},
      {"measurement": "Lowest concentration with antioxidant activity", "setting": "[1]; organic solvent systems", "value": "≤ 0.2", "unit": "% w/w"}
    ]}
  ]
}
